{"source": "patent US20120128670A1", "about": "“mTOR INHIBITOR AND ANGIOGENESIS INHIBITOR COMBINATION THERAPY” (OSI PHARMACEUTICALS, LLC, priority 2009, published 2012)", "key": {"[1]": {"system": "DU145 prostate carcinoma xenografts", "experiment": "Study No. 2: tumor growth inhibition in DU145 prostate carcinoma xenografts, extended dosing for 28 days", "type": "in vivo", "protocol": "(§1) With respect to study Nos. 1 and 2, male athymic nude nu/nu mice (6-8 wks, 25-32 g, Harlan) were allowed to acclimate for a minimum of one week prior to initiation of the study. To evaluate tumor growth inhibition, DU145 tumor fragments were implanted s.c. in the right flank of nude mice. Tumors were established to 200±50 mm^3 in size before randomization into treatment groups of 8 mice each.\n(§2) Body weights were determined twice weekly along with tumor volume (V=[length×(width)]/2) measurements using Vernier calipers. Tumor growth inhibition was determined at different time points by the following formula:\n(§3) where Tt=median tumor volume of treated at time t; T0=median tumor volume of treated at time 0; Ct=median tumor volume of control at time t; and C0=median tumor volume of control at time 0. The average TGI over the dosing period was then calculated and reported.\n(§4) Tumor regressions were determined and calculated as follows using the formula: % Regression=100(T0−Ti)/T0; where T0 is the mean tumor volume for treated group at the initiation of treatment and Ti is the mean tumor volume for that group at time x."}, "[2]": {"system": "DU145 prostate carcinoma xenografts", "details": "for % Reg. / Morbidity (Mortality) / Avg. TGI: DU145 xenografts", "protocol": "as §1\n(§5) All of the Tumor Growth Inhibition (TGI) studies were performed using 20% Trappsol as the vehicle with once-daily oral administration of OSI-027 for 14 or 28 consecutive days. Body weights were determined twice weekly along with tumor volume (V=[length×(width)]/2) measurements using Vernier calipers. Tumor growth inhibition was determined at different time points by the following formula:\nas §3, §4"}, "[3]": {"system": "H292 lung carcinoma xenografts", "experiment": "Study No. 3: tumor growth inhibition in H292 lung carcinoma xenografts", "details": "21 days, single agent", "description": "(§6) Regarding study Nos. 3 and 4, female athymic nude nu/nu CD-1 mice (6-8 wks, 20-29 g, Charles River Laboratories, Wilmington, Mass., USA) were allowed to acclimate for a minimum of one week prior to initiation of the study. To evaluate tumor growth inhibition, cells were harvested from cell culture flasks during exponential cell growth, washed twice with sterile PBS, counted and resuspended in PBS to a suitable concentration before s.c. implantation on the right flank of nu/nu CD-1 mice. Tumors were established to 200±50 mm^3 in size before randomization into treatment groups of 8 mice each.\nas §5, §3, §4"}, "[4]": {"system": "SKOV3 ovarian carcinoma xenografts", "experiment": "Study No. 5: tumor growth inhibition in SKOV3 ovarian carcinoma xenografts", "details": "single agent", "protocol": "With respect to study No. 5, female athymic nude nu/nu mice (11-12 wks, 20-27 g, Harlan) were allowed to acclimate for a minimum of one week prior to initiation of the study. To evaluate tumor growth inhibition, SKOV3 tumor fragments were implanted s.c. in the right flank of nude mice. Tumors were established to mean tumor volume per treatment group of 84.6 mm^3-85.3 mm^3 of 8 mice each.\nas §2, §3, §4"}, "[5]": {"system": "OVCAR-5 ovarian carcinoma xenografts", "experiment": "Study No. 4: tumor growth inhibition in OVCAR-5 ovarian carcinoma xenografts", "details": "OVCAR-5 xenografts, 14 days, single agent", "description": "as §6, §5, §3, §4"}, "[6]": {"details": "OSI-027 50 mg/kg qd oral, 28 days, single agent"}, "[7]": {"details": "OSI-027 65 mg/kg qd oral, 28 days, single agent"}, "[8]": {"details": "OSI-027 50 mg/kg qd oral, 14 days, single agent"}, "[9]": {"details": "OSI-027 50 mg/kg qd oral, 50 mg/kg"}, "[10]": {"details": "OSI-027 50 mg/kg qd oral, 14 days"}, "[11]": {"details": "OSI-027 50 mg/kg qd oral, 14 days, 50 mg/kg"}, "[12]": {"details": "Sutent 40 mg/kg qd, listed as Sunitinib"}, "[13]": {"details": "Avastin 4 mg/kg q4d×8, single agent"}, "[14]": {"details": "Avastin 4 mg/kg q4d×4, single agent"}, "[15]": {"details": "Avastin 4 mg/kg q4d (table; text 5 mg/kg q4d×4)"}, "[16]": {"details": "Avastin 4 mg/kg q4d (table; text 5 mg/kg q4d×4), listed as Bevacizumab"}}, "note": "Like-named read-outs stand apart in the source and are kept apart here."}
{"molecule": "COc1cccc2cc(-c3nc([C@H]4CC[C@H](C(=O)O)CC4)n4ncnc(N)c34)[nH]c12", "note": "[OSI-027, (1R,4R)-4-(4-amino-5-(7-methoxy-1H-indol-2-yl)imidazo[1,5-f][1,2,4]triazin-7-yl)cyclohexanecarboxylic acid]", "values": [{"measurement": "% Reg.", "setting": "[1]; [6]", "value": 0, "unit": "%"}, {"measurement": "BWL", "setting": "[1]; [6]", "value": 14, "unit": "%"}, {"measurement": "Morbidity (Mortality)", "setting": "[1]; [6]", "value": "0/8"}, {"measurement": "Avg. TGI", "setting": "[1]; OSI-027 50 mg/kg qd oral, 28 days, single agent, 50 mg/kg", "value": 40, "unit": "%"}, {"measurement": "% Reg.", "setting": "[1]; [7]", "value": 0, "unit": "%"}, {"measurement": "BWL", "setting": "[1]; [7]", "value": 17, "unit": "%"}, {"measurement": "Morbidity (Mortality)", "setting": "[1]; [7]", "value": "0/8"}, {"measurement": "Avg. TGI", "setting": "[1]; OSI-027 65 mg/kg qd oral, 28 days, single agent, 65 mg/kg", "value": 58, "unit": "%"}, {"measurement": "% Reg.", "setting": "[2]; [8]", "value": 0, "unit": "%"}, {"measurement": "Morbidity (Mortality)", "setting": "[2]; [8]", "value": "0/8"}, {"measurement": "Avg. TGI", "setting": "[2]; OSI-027 50 mg/kg qd oral, 14 days, single agent, 50 mg/kg", "value": 21, "unit": "%"}, {"measurement": "BWL", "setting": "[2]; mouse, in vivo, po, 50 mg/kg", "value": 6, "unit": "%"}, {"measurement": "BWL", "setting": "[3]; OSI-027 50 mg/kg qd oral", "value": 0, "unit": "%"}, {"measurement": "Morbidity (Mortality)", "setting": "[3]; OSI-027 50 mg/kg qd oral", "value": "0/8"}, {"measurement": "% Reg.", "setting": "[3]; [9]", "value": 8, "unit": "%"}, {"measurement": "Avg. TGI", "setting": "[3]; [9]", "value": 83, "unit": "%"}, {"measurement": "BWL", "setting": "[4]; [10]", "value": 2, "unit": "%"}, {"measurement": "Morbidity (Mortality)", "setting": "[4]; [10]", "value": "0/8"}, {"measurement": "% Reg.", "setting": "[4]; [11]", "value": 4, "unit": "%"}, {"measurement": "Avg. TGI", "setting": "[4]; [11]", "value": 86, "unit": "%"}, {"measurement": "BWL", "setting": "[5]; OSI-027 50 mg/kg qd oral", "value": 0, "unit": "%"}, {"measurement": "Morbidity (Mortality)", "setting": "[5]; OSI-027 50 mg/kg qd oral", "value": "0/8"}, {"measurement": "% Reg.", "setting": "[5]; [9]", "value": 6, "unit": "%"}, {"measurement": "Avg. TGI", "setting": "[5]; [9]", "value": 78, "unit": "%"}]}
{"molecule": "CCN(CC)CCNC(=O)c1c(C)[nH]c(/C=C2\\C(=O)Nc3ccc(F)cc32)c1C", "note": "[Sutent, sunitinib, reference compound]", "values": [{"measurement": "% Reg.", "setting": "[3]; Sutent 40 mg/kg qd", "value": 0, "unit": "%"}, {"measurement": "Avg. TGI", "setting": "[3]; Sutent 40 mg/kg qd", "value": 55, "unit": "%"}, {"measurement": "Morbidity (Mortality)", "setting": "[3]; Sutent 40 mg/kg qd", "value": "0/8"}, {"measurement": "Avg. TGI", "setting": "[3]; [12]", "value": 55, "unit": "%"}, {"measurement": "% Reg.", "setting": "[5]; Sutent 40 mg/kg qd", "value": 0, "unit": "%"}, {"measurement": "Avg. TGI", "setting": "[5]; Sutent 40 mg/kg qd", "value": 71, "unit": "%"}, {"measurement": "Morbidity (Mortality)", "setting": "[5]; Sutent 40 mg/kg qd", "value": "0/8"}, {"measurement": "Avg. TGI", "setting": "[5]; [12]", "value": 71, "unit": "%"}]}
{"molecule": "bevacizumab [Avastin, reference compound]", "values": [{"measurement": "% Reg.", "setting": "[1]; [13]", "value": 0, "unit": "%"}, {"measurement": "Avg. TGI", "setting": "[1]; [13]", "value": 32, "unit": "%"}, {"measurement": "Morbidity (Mortality)", "setting": "[1]; [13]", "value": "0/8"}, {"measurement": "Avg. TGI", "setting": "[1]; Avastin 4 mg/kg q4d×8, single agent, listed as Bevacizumab", "value": 32, "unit": "%"}, {"measurement": "% Reg.", "setting": "[2]; [14]", "value": 0, "unit": "%"}, {"measurement": "Avg. TGI", "setting": "[2]; [14]", "value": 16, "unit": "%"}, {"measurement": "Morbidity (Mortality)", "setting": "[2]; [14]", "value": "0/8"}, {"measurement": "Avg. TGI", "setting": "[2]; Avastin 4 mg/kg q4d×4, single agent, listed as Bevacizumab", "value": 16, "unit": "%"}, {"measurement": "% Reg.", "setting": "[4]; [15]", "value": 0, "unit": "%"}, {"measurement": "Avg. TGI", "setting": "[4]; [15]", "value": 67, "unit": "%"}, {"measurement": "Morbidity (Mortality)", "setting": "[4]; [15]", "value": "0/8"}, {"measurement": "% Reg.", "setting": "[4]; [16]", "value": 0, "unit": "%"}, {"measurement": "Avg. TGI", "setting": "[4]; [16]", "value": 67, "unit": "%"}]}
